Assay results: patent publication US20150246093A1, “ORAL FORMULATIONS OF ANGIOTENSIN” (TARIX PHARMACEUTICALS LTD., priority 2012, published 2015)
“And” between values parts separate entries of the source, which are not always exact repeats. Identical values can stand only once. Like-named read-outs stand apart in the source and are kept apart here.

Experiment: Pharmacokinetics after intra-duodenal injection (ID) in anesthetized rats, model mimicking enteric-coated oral dosage form, plasma LC-MS
Format: in vivo, rat
Details: for Total mean A(1-7) exposure over the observation period: ID; for level at 0 h / level at 10 min / level at 20 min / level at 40 min / level at 1 h / level at 1.5 h / level at 5 min: read-out: Angiotensin (1-7) concentration
Method: This model mimics the release and absorption expected from an orally delivered enteric coated solid dosage form such as capsule or tablet.
After extraction, the samples were then transferred to ice-cold tubes containing a protease inhibitor cocktail. The samples were kept on ice until they were centrifuged at 4° C. to obtain plasma. The plasma supernatants were then frozen −70° C. until analysis using an LC-MS assay.
The oral delivery of an angiotensin (1-7) peptide (e.g., TXA127) was then evaluated in a rat model that mimics the release of the peptide into the intestine by enteric-coated capsule. Briefly, the duodenums of anesthetized rats were surgically exposed, and an angiotensin (1-7) peptide was delivered through a 27 gauge needle into the duodenum. A baseline was obtained by ID administration of an angiotensin (1-7) in PBS. Samples of blood was removed from the carotid artery before and 5, 10, 20, 40, 60 and 90 minutes after peptide administration. Subsequently, an angiotensin (1-7) peptide was administered ID in 400 mM citrate buffer (pH 3.5) and lauroyl-L-carnitine (LLC) (10 mg/ml), a formulation that mimics the contents of the enteric-coated capsules. In order to maximize the stability of TXA127 in rat circulation, captopril (e.g., 0.5 mg/ml or 5 mg/ml) may be added to the formulations. Blood samples were taken at the same time points as the baseline study and handled as described above for analysis.

[1] = ID 0.3 ml A [10 mg/ml in PBS], individual rats
[2] = ID 0.3 ml B [10 mg/ml, 10 mg/ml LLC, 400 mM Citrate pH 3.5, 150 mM NaCl], individual rats
[3] = ID 0.3 ml C [10 mg/ml, Captopril 0.5 mg/ml, 10 mg/ml LLC, 400 mM Citrate pH 3.5, 150 mM NaCl], individual rats
[4] = ID 0.3 ml C [10 mg/ml, Captopril 5 mg/ml, 10 mg/ml LLC, 400 mM Citrate pH 3.5, 150 mM NaCl], individual rats

In the case of CC[C@H](C)[C@H](NC(=O)[C@H](Cc1ccc(O)cc1)NC(=O)[C@@H](NC(=O)[C@H](CCCNC(=N)N)NC(=O)[C@@H](N)CC(=O)O)C(C)C)C(=O)N[C@@H](Cc1c[nH]cn1)C(=O)N1CCC[C@H]1C(=O)O [Angiotensin (1-7), Asp^1-Arg^2-Val^3-Tyr^4-Ile^5-His^6-Pro^7], the AUC0-90 [1] is reported as 123 ng·min/mL and 881 ng·min/mL and 181 ng·min/mL and 456 ng·min/mL and 166 ng·min/mL and 616 ng·min/mL, the Cmax [1] is reported as 3.44 ng/mL and 15 ng/mL and 4 ng/mL and 9 ng/mL and 3 ng/mL and 10.4 ng/mL and the Half-Life [1] is reported as 51 min and 140 min and 23 min and 7 min. The “Angiotensin (1-7) concentration” value (ID 0.3 ml A [10 mg/ml in PBS], time point 0 min (before administration), individual rats) was 0.23 ng/mL and 0.0 ng/mL and 1.54 ng/mL and 1.00 ng/mL and 1.84 ng/mL and 5.81 ng/mL, the “Angiotensin (1-7) concentration” value (ID 0.3 ml A [10 mg/ml in PBS], time point 5 min, individual rats) was 0.84 ng/mL and 12.3 ng/mL and 0.94 ng/mL and 0.88 ng/mL and 0.891 ng/mL and 9.24 ng/mL and the “Angiotensin (1-7) concentration” value (ID 0.3 ml A [10 mg/ml in PBS], time point 10 min, individual rats) was 3.44 ng/mL and 6.38 ng/mL and 1.08 ng/mL and 0.99 ng/mL and 1.12 ng/mL and 4.08 ng/mL. For the same molecule, the “Angiotensin (1-7) concentration” value (ID 0.3 ml A [10 mg/ml in PBS], time point 20 min, individual rats) was 0.62 ng/mL and 13.3 ng/mL and 1.91 ng/mL and 1.79 ng/mL and 1.80 ng/mL and 2.05 ng/mL, the “Angiotensin (1-7) concentration” value (ID 0.3 ml A [10 mg/ml in PBS], time point 40 min, individual rats) was 0.27 ng/mL and 15.4 ng/mL and 1.22 ng/mL and 4.14 ng/mL and 1.30 ng/mL and 3.89 ng/mL and the “Angiotensin (1-7) concentration” value (ID 0.3 ml A [10 mg/ml in PBS], time point 60 min, individual rats) was 1.55 ng/mL and 6.27 ng/mL and 3.97 ng/mL and 8.75 ng/mL and 3.07 ng/mL and 10.4 ng/mL. The “Angiotensin (1-7) concentration” value (ID 0.3 ml A [10 mg/ml in PBS], time point 90 min, individual rats) was 2.61 ng/mL and 7.19 ng/mL and 0.78 ng/mL and 7.54 ng/mL and 1.23 ng/mL and 10.4 ng/mL, the AUC0-90 [2] was 19,502.2 ng*min/mL and 1,777.5 ng*min/mL and 422.8 ng*min/mL and 1,168.2 ng*min/mL and 2,100.6 ng*min/mL and 669.9 ng*min/mL and the Cmax [2] was >1000 ng/mL and 259.0 ng/mL and 19.3 ng/mL and 89.7 ng/mL and 60.7 ng/mL and 56.4 ng/mL. The Half-Life [2] was 9.3 min and 173.3 min and 23.8 min and 25.2 min and 21.6 min and 25.0 min, the “Angiotensin (1-7) concentration” value (ID 0.3 ml B [10 mg/ml, 10 mg/ml LLC, 400 mM Citrate pH 3.5, 150 mM NaCl], time point 0 min (before administration), individual rats) was 1.46 ng/mL and the “Angiotensin (1-7) concentration” value (ID 0.3 ml B [10 mg/ml, 10 mg/ml LLC, 400 mM Citrate pH 3.5, 150 mM NaCl], time point 5 min, individual rats) was >1000 ng/mL and 259 ng/mL and 3.48 ng/mL and 89.7 ng/mL and 60.7 ng/mL and 56.38 ng/mL. For the same molecule, the “Angiotensin (1-7) concentration” value (ID 0.3 ml B [10 mg/ml, 10 mg/ml LLC, 400 mM Citrate pH 3.5, 150 mM NaCl], time point 10 min, individual rats) was >1000 ng/mL and 21 ng/mL and 19.3 ng/mL and 15.2 ng/mL and 59.6 ng/mL and 17.92 ng/mL, the “Angiotensin (1-7) concentration” value (ID 0.3 ml B [10 mg/ml, 10 mg/ml LLC, 400 mM Citrate pH 3.5, 150 mM NaCl], time point 20 min, individual rats) was 59.9 ng/mL and 7.35 ng/mL and 6.02 ng/mL (2×) and 18.4 ng/mL and 51.2 ng/mL and the “Angiotensin (1-7) concentration” value (ID 0.3 ml B [10 mg/ml, 10 mg/ml LLC, 400 mM Citrate pH 3.5, 150 mM NaCl], time point 40 min, individual rats) was 4.88 ng/mL and 5.6 ng/mL and 2.32 ng/mL and 5.05 ng/mL and 11.7 ng/mL and 1.11 ng/mL. The “Angiotensin (1-7) concentration” value (ID 0.3 ml B [10 mg/ml, 10 mg/ml LLC, 400 mM Citrate pH 3.5, 150 mM NaCl], time point 60 min, individual rats) was 4.74 ng/mL and 1.7 ng/mL and 3.99 ng/mL and 6.36 ng/mL and 10.9 ng/mL and 3.48 ng/mL, the “Angiotensin (1-7) concentration” value (ID 0.3 ml B [10 mg/ml, 10 mg/ml LLC, 400 mM Citrate pH 3.5, 150 mM NaCl], time point 90 min, individual rats) was 3.93 ng/mL and 3.99 ng/mL and 1.11 ng/mL and 4.43 ng/mL and 4.74 ng/mL and 3.39 ng/mL and the AUC0-90 [3] was 9,257 ng*min/mL and 20,442 ng*min/mL and 7,394 ng*min/mL and 2,252 ng*min/mL (2×) and 6,495 ng*min/mL. The Cmax [3] was 879.0 ng/mL and >1000 ng/mL and 468.0 ng/mL and 83.0 ng/mL (2×) and 735.0 ng/mL, the Half-Life [3] was 11.9 min and 29.1 min and 13.9 min and 18.3 min (2×) and 17.9 min and the “Angiotensin (1-7) concentration” value (ID 0.3 ml C [10 mg/ml, Captopril 0.5 mg/ml, 10 mg/ml LLC, 400 mM Citrate pH 3.5, 150 mM NaCl], time point 0 min (before administration), Average) was 1.1 ng/mL. The AUC0-90 [4] was 26,654 ng*min/mL and 1,008 ng*min/mL and 7,641 ng*min/mL and 10,668 ng*min/mL and 6,228 ng*min/mL and 3,862 ng*min/mL, the Cmax [4] was <1000 ng/mL and 33.5 ng/mL and 504 ng/mL and 746.0 ng/mL and 391.25 ng/mL and 432.85 ng/mL and the Half-Life [4] was 10.55 min and 7.97 min and 15.45 min and 11.94 min and 12.86 min and 25.62 min. For the same molecule, the “Angiotensin (1-7) concentration” value (ID 0.3 ml C [10 mg/ml, Captopril 5 mg/ml, 10 mg/ml LLC, 400 mM Citrate pH 3.5, 150 mM NaCl], time point 0 min (before administration), Average) was 2.42 ng/mL, the “Total mean A(1-7) exposure over the observation period” value (0.3 mL of 10 mg/mL A(1-7) formulated in PBS, 6 rats) was 403 ng·min/mL and the “Total mean A(1-7) exposure over the observation period” value (0.3 mL of 10 mg/mL A(1-7) with 0.5 mg/mL captopril (as printed in the text on Table 5), 10 mg/mL LLC, 400 mM Citrate, 150 mM NaCl pH 3.5, six rats) was 9,399 ng*min/mL. The “Total mean A(1-7) exposure over the observation period” value (0.3 mL of 10 mg/mL A(1-7) with 0.5 mg/mL captopril, 10 mg/mL LLC, 400 mM Citrate, 150 mM NaCl pH 3.5, seven rats (Table 4)) was 7,152 ng*min/mL, the “Total mean A(1-7) exposure over the observation period” value (0.3 mL of 10 mg/mL A(1-7) with 10 mg/mL LLC, 400 mM Citrate, 150 mM NaCl pH 3.5) was 4,274 ng*min/mL and the “Half-life and total exposure compared to the baseline profile of angiotensin (1-7) delivered in PBS” value (formulation according to the invention (citrate, LLC, with or without captopril), rat model mimicking oral delivery) was “significantly improved half-life and total exposure”. For the same molecule, the level at 0 h (rat, plasma, 3 mg per rat, pH 3.5, ID 0.3 ml B [10 mg/ml, 10 mg/ml LLC, 400 mM Citrate pH 3.5, 150 mM NaCl], time point 0 min (before administration), Average) was 1.51 ng/mL, the level at 10 min (rat, plasma, 3 mg per rat, pH 3.5, ID 0.3 ml B [10 mg/ml, 10 mg/ml LLC, 400 mM Citrate pH 3.5, 150 mM NaCl], time point 10 min, Average) was 204 ng/mL and the level at 20 min (rat, plasma, 3 mg per rat, pH 3.5, ID 0.3 ml B [10 mg/ml, 10 mg/ml LLC, 400 mM Citrate pH 3.5, 150 mM NaCl], time point 20 min, Average) was 24.8 ng/mL. The level at 40 min (rat, plasma, 3 mg per rat, pH 3.5, ID 0.3 ml B [10 mg/ml, 10 mg/ml LLC, 400 mM Citrate pH 3.5, 150 mM NaCl], time point 40 min, Average) was 5.11 ng/mL, the level at 1 h (rat, plasma, 3 mg per rat, pH 3.5, ID 0.3 ml B [10 mg/ml, 10 mg/ml LLC, 400 mM Citrate pH 3.5, 150 mM NaCl], time point 60 min, Average) was 5.2 ng/mL and the level at 1.5 h (rat, plasma, 3 mg per rat, pH 3.5, ID 0.3 ml B [10 mg/ml, 10 mg/ml LLC, 400 mM Citrate pH 3.5, 150 mM NaCl], time point 90 min, Average) was 3.6 ng/mL. It also gave a level at 0 h (rat, plasma, 3 mg, ID 0.3 ml A [10 mg/ml in PBS], time point 0 min (before administration), Average) of 1.74 ng/mL, a level at 5 min (rat, plasma, 3 mg, ID 0.3 ml A [10 mg/ml in PBS], time point 5 min, Average) of 4.18 ng/mL and a level at 10 min (rat, plasma, 3 mg, ID 0.3 ml A [10 mg/ml in PBS], time point 10 min, Average) of 2.85 ng/mL. It also gave a level at 20 min (rat, plasma, 3 mg, ID 0.3 ml A [10 mg/ml in PBS], time point 20 min, Average) of 3.58 ng/mL, a level at 40 min (rat, plasma, 3 mg, ID 0.3 ml A [10 mg/ml in PBS], time point 40 min, Average) of 4.37 ng/mL and a level at 1 h (rat, plasma, 3 mg, ID 0.3 ml A [10 mg/ml in PBS], time point 60 min, Average) of 5.67 ng/mL. For the same molecule, the level at 1.5 h (rat, plasma, 3 mg, ID 0.3 ml A [10 mg/ml in PBS], time point 90 min, Average) was 4.96 ng/mL, the level at 5 min (rat, plasma, 3 mg, pH 3.5, ID 0.3 ml B [10 mg/ml, 10 mg/ml LLC, 400 mM Citrate pH 3.5, 150 mM NaCl], time point 5 min, Average) was 417 ng/mL and the AUC(0-t) (rat, plasma, other: intra-duodenal injection (ID), 3 mg, ID 0.3 ml A [10 mg/ml in PBS], Average (PK value of the mean concentrations), read-out: AUC0-90 (converted)) was 6.73 ng·h/mL. It also gave a Cmax (rat, plasma, other: intra-duodenal injection (ID), 3 mg, ID 0.3 ml A [10 mg/ml in PBS], Average (PK value of the mean concentrations), read-out: Cmax) of 5.7 ng/mL and a Half-Life (rat, plasma, other: intra-duodenal injection (ID), 3 mg, ID 0.3 ml A [10 mg/ml in PBS], Average (PK value of the mean concentrations), read-out: Half-Life) of 155 min.
